From ChEMBL document CHEMBL1201862, “PubChem BioAssay data set” (2004)
Active and inactive are the calls of the source.

Assays:
[1] = tested on: Streptococcus sp. 'group A'; assay: Streptococcus pyogenes SK(-)GAS viability under kanamycin – luminescence, BacTiterGlo, confirmation, counter-screen for streptokinase expression inhibitor project, dose response (AID 1900); format: functional, organism-based
cells [2] = format: functional, cell-based
[3] = Trypanosoma cruzi growth suppression in host cells – NIH3T3 host cells, beta-gal luminescence, confirmation (AID 2044); format: functional, cell-based;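 note: intracellular parasites grown in NIH/3T3 mouse fibroblasts as host cells; luminescent beta-galactosidase reporter signal from transgenic T. cruzi replicating inside host cells; inhibitors lower the luminescence signal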
cells [4] = format: functional, cell-based; remark: listed apart in the source
[5] = NIH3T3 cell viability loss – ATP luminescence, mouse fibroblasts, counter-screen, dose response (AID 2010); format: functional, cell-based;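 note: cells exposed to compound for about 90 hours before reading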
Streptococcus = assay: GAS UMAA2166 growth inhibition – luminescence, BacTiterGlo, counter-screen for streptokinase expression inhibitor project, dose response (AID 1915); format: functional, organism-based;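 note: potency for reduction of bacterial viability or growth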
[6] = THP-1 cell cytotoxicity, dose response, cytotoxicity control for non-replicating M. tuberculosis project (AID 489025); format: functional
[7] = Vero E6 cell cytotoxicity, dose response, cytotoxicity control for non-replicating M. tuberculosis project, secondary assay (AID 492998); format: functional, VeroE6; conditions: Vero C1008
cells [8] = format: functional
INS1 = assay: INS-1E survival protection against cytokine death – cell-based, luminescence, retest, dose response (AID 449756); format: functional; conditions: Rattus norvegicus;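 note: cell death triggered by IL-1 beta plus TNF-alpha plus IFN-gamma mixture; protective hits raise ATP signal compared with cytokine alone wells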
[9] = general mammalian cell viability loss – inhibitor set, cherry-pick, set 2, cytotoxicity control for miR-122 modulator project, dose response (AID 720697); format: functional, cell-based
[10] = general mammalian cell viability loss – activator set, cherry-pick, cytotoxicity control for miR-122 modulator project, dose response (AID 720690); format: functional, cell-based;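 note: HEK293T human cells scored for general mammalian cytotoxicity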
fMet-Leu-Phe receptor = biological target: T1, fMet-Leu-Phe receptor (Homo sapiens, UniProt P21462); assay: formyl peptide receptor binders – dose response (AID 519); format: functional
T1 sequence (P21462 whole entry): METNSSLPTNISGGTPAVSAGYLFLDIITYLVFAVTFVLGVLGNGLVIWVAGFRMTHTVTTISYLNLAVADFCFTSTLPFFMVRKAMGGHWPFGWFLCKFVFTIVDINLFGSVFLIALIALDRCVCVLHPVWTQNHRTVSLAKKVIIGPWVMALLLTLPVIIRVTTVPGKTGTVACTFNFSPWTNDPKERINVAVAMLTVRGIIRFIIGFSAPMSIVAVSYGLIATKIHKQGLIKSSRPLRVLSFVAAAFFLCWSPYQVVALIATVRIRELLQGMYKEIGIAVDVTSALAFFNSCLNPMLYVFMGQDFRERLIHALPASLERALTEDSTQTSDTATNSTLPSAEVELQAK

[11] = RKO cell viability reduction, dose response, CellTiter-Glo luminescence (AID 1117322); format: functional
[12] = cytotoxicity toward HCT116 cells – cell-based, CellTiter-Glo luminescence, IC50, dose response (AID 1117332); format: functional; conditions: HCT-116
[13] = SNU-C1 cell viability reduction, dose response, CellTiter-Glo luminescence (AID 1117323); format: functional, cell-based
[14] = cytotoxicity toward Colo320 cells – cell-based, CellTiter-Glo luminescence, IC50, dose response (AID 1117334); format: functional; conditions: COLO 320
[15] = Reduced DLD-1 viability, concentration-response, CellTiter-Glo luminescence (AID 1117352); format: functional
[16] = HCT116 cell viability decrease, GSK3B pretreatment – CellTiter-Glo, IC50, dose response (AID 1117339); format: functional; conditions: HCT-116
[17] = viability loss in HepG2 hepatoma cells – cell-based, ATP luminescence, cherry-pick, activator set 2, cytotoxicity control, dose response (AID 1053143); format: functional
[18] = biological target: Disintegrin and metalloproteinase domain-containing protein 17 (Homo sapiens, UniProt P78536); assay: exosite inhibitors of ADAM17, dose response, biochemical (AID 743260)
Disintegrin and metalloproteinase domain-containing protein 17, sequence (P78536 whole entry, the tested form may be a part): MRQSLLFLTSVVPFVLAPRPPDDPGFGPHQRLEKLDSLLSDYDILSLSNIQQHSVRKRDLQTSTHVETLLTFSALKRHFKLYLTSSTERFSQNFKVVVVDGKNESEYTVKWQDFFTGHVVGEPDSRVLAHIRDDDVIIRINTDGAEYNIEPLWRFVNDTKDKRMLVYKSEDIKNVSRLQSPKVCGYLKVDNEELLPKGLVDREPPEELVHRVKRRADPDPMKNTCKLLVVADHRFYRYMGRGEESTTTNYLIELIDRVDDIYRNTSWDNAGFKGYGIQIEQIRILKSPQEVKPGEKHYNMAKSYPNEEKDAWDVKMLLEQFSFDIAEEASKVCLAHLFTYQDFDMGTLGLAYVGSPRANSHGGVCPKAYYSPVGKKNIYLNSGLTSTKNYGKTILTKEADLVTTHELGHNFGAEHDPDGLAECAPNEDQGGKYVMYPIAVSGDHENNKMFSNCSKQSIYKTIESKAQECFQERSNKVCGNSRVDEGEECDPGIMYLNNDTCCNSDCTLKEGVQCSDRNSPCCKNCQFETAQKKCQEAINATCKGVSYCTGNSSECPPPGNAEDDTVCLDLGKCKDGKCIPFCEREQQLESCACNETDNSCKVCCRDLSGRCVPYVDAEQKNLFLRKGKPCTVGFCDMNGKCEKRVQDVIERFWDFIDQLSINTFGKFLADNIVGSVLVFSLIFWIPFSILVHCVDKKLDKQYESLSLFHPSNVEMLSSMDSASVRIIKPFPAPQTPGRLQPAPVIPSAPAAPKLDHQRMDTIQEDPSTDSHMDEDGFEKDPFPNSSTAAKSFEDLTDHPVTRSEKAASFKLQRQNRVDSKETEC

[19] = inhibition of ADAM10 peptide cleavage – biochemical, FRET peptide substrate, recombinant human ADAM10, selectivity assay for ADAM17 exosite inhibitor project, dose response (AID 743259);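 note: ADAM10 enzyme cleaving a FRET peptide substrate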
cells [20] = assay: cells
Cytochrome P450 3A4 = Cytochrome P450 3A4 (Homo sapiens, UniProt P08684); conditions: Potency;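 note: confirmatory qHTS run detecting inhibitors and substrates of CYP3A4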
Cytochrome P450 3A4, sequence (P08684 whole entry): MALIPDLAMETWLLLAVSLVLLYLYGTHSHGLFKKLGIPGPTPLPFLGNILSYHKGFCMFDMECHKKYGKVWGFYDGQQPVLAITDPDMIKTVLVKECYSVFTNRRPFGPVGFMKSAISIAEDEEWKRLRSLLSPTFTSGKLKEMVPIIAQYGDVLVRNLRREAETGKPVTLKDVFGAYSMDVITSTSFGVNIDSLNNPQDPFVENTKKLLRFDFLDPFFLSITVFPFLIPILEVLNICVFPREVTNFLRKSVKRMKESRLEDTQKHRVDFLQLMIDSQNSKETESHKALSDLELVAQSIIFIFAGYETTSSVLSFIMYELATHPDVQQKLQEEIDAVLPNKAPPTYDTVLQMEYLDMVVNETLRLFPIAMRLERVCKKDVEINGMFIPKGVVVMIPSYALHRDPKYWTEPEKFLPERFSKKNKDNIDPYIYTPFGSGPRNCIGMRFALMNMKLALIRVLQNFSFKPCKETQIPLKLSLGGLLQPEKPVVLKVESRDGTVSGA

Estrogen receptor = biological target: T2, Estrogen receptor (Homo sapiens, UniProt P03372);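 note: potency for inhibiting coactivator peptide recruitment to the receptor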
T2 sequence (P03372 whole entry): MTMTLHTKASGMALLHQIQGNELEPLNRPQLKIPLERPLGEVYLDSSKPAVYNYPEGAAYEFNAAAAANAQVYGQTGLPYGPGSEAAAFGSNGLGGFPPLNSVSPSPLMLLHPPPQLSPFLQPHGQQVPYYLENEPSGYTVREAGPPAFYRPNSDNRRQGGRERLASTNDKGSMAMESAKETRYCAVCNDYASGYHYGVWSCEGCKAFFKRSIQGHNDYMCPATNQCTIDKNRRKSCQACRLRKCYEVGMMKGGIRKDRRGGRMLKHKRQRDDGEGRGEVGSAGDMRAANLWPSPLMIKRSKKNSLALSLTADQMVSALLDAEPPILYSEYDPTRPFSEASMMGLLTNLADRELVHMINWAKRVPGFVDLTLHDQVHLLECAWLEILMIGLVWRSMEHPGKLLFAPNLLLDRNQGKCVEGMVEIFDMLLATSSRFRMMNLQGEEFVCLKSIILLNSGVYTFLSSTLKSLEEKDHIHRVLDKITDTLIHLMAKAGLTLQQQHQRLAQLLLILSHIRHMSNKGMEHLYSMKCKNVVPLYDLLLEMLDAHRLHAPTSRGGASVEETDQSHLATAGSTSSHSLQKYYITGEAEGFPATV

[21] = biological target: T3, Calpain-2 catalytic subunit (Sus scrofa, UniProt P43367); assay: m-calpain protease blockers, concentration series – biochemical, fluorogenic peptide substrate, dose response (AID 1420); format: functional
T3 sequence (P43367 whole entry): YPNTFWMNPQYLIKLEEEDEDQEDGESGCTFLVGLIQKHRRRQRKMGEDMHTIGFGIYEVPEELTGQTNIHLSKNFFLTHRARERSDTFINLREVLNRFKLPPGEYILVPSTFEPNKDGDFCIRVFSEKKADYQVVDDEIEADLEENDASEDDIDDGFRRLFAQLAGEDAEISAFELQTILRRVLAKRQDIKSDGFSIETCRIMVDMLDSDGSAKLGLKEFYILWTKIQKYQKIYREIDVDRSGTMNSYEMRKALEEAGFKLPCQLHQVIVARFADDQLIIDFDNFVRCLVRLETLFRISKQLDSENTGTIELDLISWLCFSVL

[22] = biological target: T4, Corticotropin-releasing factor receptor 2/Corticotropin-releasing factor-binding protein (Homo sapiens, UniProt P24387+Q13324); assay: Dose Response confirmation of uHTS hits for small molecule antagonists of the CRF-binding protein and CRF-R2 receptor complex.; format: functional; conditions: read-out: IC50_Mean
T4 sequence (Q13324 whole entry): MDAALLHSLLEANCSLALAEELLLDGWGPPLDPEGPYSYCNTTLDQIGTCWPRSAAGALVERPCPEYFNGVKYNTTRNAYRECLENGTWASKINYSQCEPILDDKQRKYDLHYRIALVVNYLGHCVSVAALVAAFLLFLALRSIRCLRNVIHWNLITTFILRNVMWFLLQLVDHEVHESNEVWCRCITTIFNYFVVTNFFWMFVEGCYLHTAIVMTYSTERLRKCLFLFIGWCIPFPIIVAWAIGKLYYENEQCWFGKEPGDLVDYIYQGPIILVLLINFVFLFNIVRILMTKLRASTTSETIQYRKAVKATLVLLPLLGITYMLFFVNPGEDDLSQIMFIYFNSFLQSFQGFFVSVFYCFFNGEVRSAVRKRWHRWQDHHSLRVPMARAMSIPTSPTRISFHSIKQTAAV
T4 sequence (P24387 whole entry): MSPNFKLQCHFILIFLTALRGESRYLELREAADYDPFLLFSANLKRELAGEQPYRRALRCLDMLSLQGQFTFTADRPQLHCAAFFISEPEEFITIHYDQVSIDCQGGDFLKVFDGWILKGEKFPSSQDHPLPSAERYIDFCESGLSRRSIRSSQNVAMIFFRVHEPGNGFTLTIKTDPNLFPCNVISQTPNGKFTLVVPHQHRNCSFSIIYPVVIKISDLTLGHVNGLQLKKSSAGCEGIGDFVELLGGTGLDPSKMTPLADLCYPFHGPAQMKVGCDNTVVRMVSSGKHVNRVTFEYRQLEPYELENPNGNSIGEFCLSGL

[23] = biological target: T4, Corticotropin-releasing factor receptor 2/Corticotropin-releasing factor-binding protein; assay: activators of CRF receptor 2 with binding protein – uHTS hits, confirmation (AID 602473); format: functional; conditions: read-out: EC50_Mean
[24] = blockers of CRF-binding protein–CRF-R2 complex – cell-based, uHTS hits, 384-well, dose response (AID 651639); format: functional, Homo sapiens; conditions: read-out: IC50_Mean
Paired box protein Pax-8 = Paired box protein Pax-8 (Homo sapiens, UniProt Q06710); assay: PAX8 transcriptional activity inhibition in RMG-I – RMG-I cells, luciferase, cherry-pick, dose response (AID 687027); format: functional, cell-based;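 note: luciferase reporter driven by Pax8 target thyroperoxidase promoter measured by SteadyGlo luminescence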
Paired box protein Pax-8, sequence (Q06710 whole entry): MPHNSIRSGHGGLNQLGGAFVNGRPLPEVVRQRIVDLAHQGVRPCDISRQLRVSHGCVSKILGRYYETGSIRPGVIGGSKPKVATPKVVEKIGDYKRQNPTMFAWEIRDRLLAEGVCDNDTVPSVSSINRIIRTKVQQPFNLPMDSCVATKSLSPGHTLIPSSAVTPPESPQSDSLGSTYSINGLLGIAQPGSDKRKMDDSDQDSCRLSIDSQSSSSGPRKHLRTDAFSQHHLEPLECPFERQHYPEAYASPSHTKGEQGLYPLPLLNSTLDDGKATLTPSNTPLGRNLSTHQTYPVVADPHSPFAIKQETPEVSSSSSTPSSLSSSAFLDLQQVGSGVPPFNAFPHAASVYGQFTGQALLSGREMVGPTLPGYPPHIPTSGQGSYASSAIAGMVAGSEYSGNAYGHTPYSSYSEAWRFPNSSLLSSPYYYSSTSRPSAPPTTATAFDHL

[25] = toxicity toward immortalized ovarian surface epithelium – cell-based, plate reader, dry powder samples, cytotoxicity control for PAX8 inhibitor project, dose response (AID 743045); format: functional
[26] = OVCAR-3 cell viability loss – plate reader, dry powder samples, PAX8 inhibitor project, dose response (AID 743044); format: functional, cell-based
[27] = OVCAR8 cell viability loss – plate reader, dry powder samples, PAX8 project, dose response (AID 743197); format: functional, cell-based; conditions: OVCAR-8

Oc1ccccc1/C=N/Nc1nc2ccccc2o1
EC50 [1]: 1.9 µM (active) | EC50 (cells [2]): > 350 µM (not active) | EC50 [3]: 2.92 µM (active) | EC50 (cells [4]): 4.02 µM (active) | EC50 [5]: > 60 µM (not active) | EC50 (Streptococcus): 4.17 µM (active) | CC50 [6]: 1.68 µM (active) | CC50 [7]: 2.59 µM (active) | IC50 (cells [8]): 33.3 µM (active) | AC50 (INS1): 1.59 µM (active) | AC50 [9]: 2.53 µM (active) | AC50 [10]: 5.79 µM (active)

COc1ccc(-n2c(Cc3cccn3C)nnc2SCC(=O)Nc2ccc(Cl)cc2)cc1
Ki (fMet-Leu-Phe receptor): 32.9 µM (inactive)

O=C(OCc1ccccc1)c1cccnc1 [BENZYL NICOTINATE]
IC50 [11]: > 20 µM (inactive) | IC50 [12]: > 20 µM (inactive) | IC50 [13]: > 20 µM (inactive) | IC50 [14]: > 20 µM (inactive) | IC50 [15]: > 20 µM (inactive) | IC50 [16]: > 20 µM (inactive)

O=C(/C=C\c1ccco1)Oc1cccc2cccnc12
AC50 [17]: 26 µM (active)

COc1ccc(CCNC(=O)c2cc(-c3ccco3)on2)cc1OC
EC50 (cells [2]): 12.5 µM (active) | EC50 (cells [4]): > 350 µM (not active) | AC50 [17]: 26 µM (active)

COc1ccccc1Oc1c(C)oc2cc(OC(=O)c3ccco3)ccc2c1=O
Ki (fMet-Leu-Phe receptor): 19.4 µM (inactive)

Cc1ccc(C(C(=O)NC2CCCCC2)N(Cc2ccccc2)C(=O)Cc2c[nH]c3ccccc23)o1 (stereo not given)
IC50 [18]: > 69.5 µM (inactive) | IC50 [19]: 10.3 µM (inactive)

O=C(Nc1ccncc1)Nc1ccc(Cl)cc1Cl
EC50 [3]: < 0.1 µM (active) | EC50 [5]: > 60 µM (not active) | EC50 (cells [20]): 0.079 µM (active)

C=C(Cl)CSC(=S)N(CC)CC [SULFALLATE]
AC50 (Cytochrome P450 3A4): 10 µM (inconclusive)

Cc1ccc(C(=O)Nc2nc3ccc(S(C)(=O)=O)cc3s2)o1
AC50 [17]: 26 µM (active)

O=C(CSc1nc2ccccc2c(=O)n1-c1ccccc1Cl)Nc1cccc(S(=O)(=O)N2CCOCC2)c1
IC50 [18]: > 69.5 µM (inactive) | IC50 [19]: > 69.5 µM (inactive)

Cc1csc2nc(CCNS(=O)(=O)c3ccc4c(c3)OCCO4)cn12
IC50 (Estrogen receptor): 17.1 µM (active)

NC(=O)c1c(NC(=O)c2cccs2)sc2c1CCCCCC2
IC50 (Estrogen receptor): 25.9 µM (active)

CC(C)CN(CC(C)C)C(=O)CS(=O)(=O)Cc1ccccc1
Ki (fMet-Leu-Phe receptor): 8.5 µM (active)

COc1cccc(CNc2ccc([N+](=O)[O-])cc2C)c1
IC50 [21]: 41 µM (not active) | IC50 [22]: 9.05 µM (active) | EC50 [23]: > 53 µM (inactive) | IC50 [24]: 20 µM (active) | IC50 [18]: > 69.5 µM (inactive) | IC50 [19]: 27.4 µM (inactive)

COC(=O)C/C=C/C(C)C(OCc1cccc(-c2ccccc2)c1)C1CCCCC1 (stereo not given)
AC50 (Cytochrome P450 3A4): 3.98 µM (inconclusive)

CSc1ccc(CN2CCN(Cc3ccc([N+](=O)[O-])cc3)CC2)cc1
EC50 [3]: < 0.1 µM (active) | EC50 [5]: > 60 µM (inconclusive) | EC50 (cells [20]): 0.135 µM (active)

O=S(=O)(c1ccccc1F)N1CC[C@H]2[C@H](CO)Nc3ccc(C4=CCCCC4)cc3[C@H]21
AC50 (Paired box protein Pax-8): 6.12 µM (active) | AC50 [25]: 32.9 µM (active) | AC50 [26]: 18.4 µM (active) | AC50 [27]: 26.7 µM (active)
